Measured values reported in ChEMBL document CHEMBL4419163, “Assays for identifying compounds that modulate bitter taste” (2014).

Tests used:
Assay type in all cases: functional, cell-based
[1] = target: T1, Taste receptor type 2 member 1 (Homo sapiens) (UniProt Q9NYW7); assay: Agonist activity at human TAS2R1 expressed in HEK293T cells co-expressing Galpha15 assessed as increase in intracellular calcium level at 20 mM by Calcium-3 dye based fluorescence assay relative to control
T1 sequence (whole entry): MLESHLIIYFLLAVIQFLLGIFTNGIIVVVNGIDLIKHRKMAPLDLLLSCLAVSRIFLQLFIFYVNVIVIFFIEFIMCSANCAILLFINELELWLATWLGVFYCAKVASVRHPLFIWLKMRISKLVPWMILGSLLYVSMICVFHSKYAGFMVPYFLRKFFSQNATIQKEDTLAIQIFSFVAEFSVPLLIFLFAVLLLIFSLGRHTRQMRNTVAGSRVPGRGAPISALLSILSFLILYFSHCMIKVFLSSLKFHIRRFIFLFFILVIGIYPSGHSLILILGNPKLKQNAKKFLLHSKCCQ

[2] = target: T2, Taste receptor type 2 member 10 (Homo sapiens) (UniProt Q9NYW0); assay: Agonist activity at human TAS2R10 expressed in HEK293T cells co-expressing Galpha15 assessed as increase in intracellular calcium level at 20 mM by Calcium-3 dye based fluorescence assay relative to control
T2 sequence (whole entry): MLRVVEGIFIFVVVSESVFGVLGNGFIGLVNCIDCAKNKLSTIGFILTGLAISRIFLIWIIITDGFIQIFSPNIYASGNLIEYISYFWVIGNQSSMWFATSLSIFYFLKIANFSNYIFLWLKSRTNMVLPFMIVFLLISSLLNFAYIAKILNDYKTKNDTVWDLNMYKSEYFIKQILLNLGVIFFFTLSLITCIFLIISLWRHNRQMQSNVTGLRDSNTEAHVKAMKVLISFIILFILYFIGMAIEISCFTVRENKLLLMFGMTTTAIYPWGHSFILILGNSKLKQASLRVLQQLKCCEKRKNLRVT

[3] = target: T3, Taste receptor type 2 member 41 (Homo sapiens) (UniProt P59536); assay: Agonist activity at human TAS2R41 expressed in HEK293T cells co-expressing Galpha15 assessed as increase in intracellular calcium level at 20 mM by Calcium-3 dye based fluorescence assay relative to control
T3 sequence (whole entry): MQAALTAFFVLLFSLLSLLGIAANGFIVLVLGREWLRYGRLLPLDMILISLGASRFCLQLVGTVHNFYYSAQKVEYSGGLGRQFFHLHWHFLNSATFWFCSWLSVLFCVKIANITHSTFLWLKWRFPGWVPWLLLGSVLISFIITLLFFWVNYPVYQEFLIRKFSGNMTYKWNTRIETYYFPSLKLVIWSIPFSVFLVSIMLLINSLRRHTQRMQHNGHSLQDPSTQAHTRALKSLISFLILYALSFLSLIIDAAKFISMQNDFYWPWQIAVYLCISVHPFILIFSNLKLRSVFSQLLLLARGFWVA

[4] = target: Taste receptor type 2 member 40 (Homo sapiens) (UniProt P59535); assay: Agonist activity at human TAS2R40 expressed in HEK293T cells co-expressing Galpha15 assessed as increase in intracellular calcium level at 20 mM by Calcium-3 dye based fluorescence assay relative to control
Sequence of Taste receptor type 2 member 40 (Homo sapiens) (P59535 whole entry): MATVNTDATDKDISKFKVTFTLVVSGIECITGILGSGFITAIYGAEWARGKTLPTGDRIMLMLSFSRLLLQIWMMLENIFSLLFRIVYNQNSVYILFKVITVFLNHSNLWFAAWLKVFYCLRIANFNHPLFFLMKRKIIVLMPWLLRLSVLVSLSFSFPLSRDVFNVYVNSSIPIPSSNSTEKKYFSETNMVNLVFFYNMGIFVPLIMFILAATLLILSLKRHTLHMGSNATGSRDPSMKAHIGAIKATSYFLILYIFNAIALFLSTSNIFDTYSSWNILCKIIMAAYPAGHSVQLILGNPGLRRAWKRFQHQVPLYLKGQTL

[5] = target: Taste receptor type 2 member 13 (Homo sapiens, UniProt Q9NYV9); assay: Agonist activity at human TAS2R13 expressed in HEK293T cells co-expressing Galpha15 assessed as increase in intracellular calcium level by Calcium-3 dye based fluorescence assay
Sequence of Taste receptor type 2 member 13 (Q9NYV9 whole entry): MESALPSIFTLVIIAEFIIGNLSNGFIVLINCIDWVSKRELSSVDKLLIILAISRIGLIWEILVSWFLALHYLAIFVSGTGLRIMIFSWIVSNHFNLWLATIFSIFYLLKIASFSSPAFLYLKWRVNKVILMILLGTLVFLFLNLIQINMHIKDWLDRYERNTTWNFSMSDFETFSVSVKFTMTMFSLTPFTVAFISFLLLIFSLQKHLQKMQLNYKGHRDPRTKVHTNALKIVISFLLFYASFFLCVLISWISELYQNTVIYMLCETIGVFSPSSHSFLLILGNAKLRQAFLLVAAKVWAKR

[6] = target: Taste receptor type 2 member 31 (Homo sapiens, UniProt P59538); assay: Agonist activity at human TAS2R44 expressed in HEK293T cells co-expressing Galpha15 assessed as increase in intracellular calcium level by Calcium-3 dye based fluorescence assay
Sequence of Taste receptor type 2 member 31 (P59538 whole entry): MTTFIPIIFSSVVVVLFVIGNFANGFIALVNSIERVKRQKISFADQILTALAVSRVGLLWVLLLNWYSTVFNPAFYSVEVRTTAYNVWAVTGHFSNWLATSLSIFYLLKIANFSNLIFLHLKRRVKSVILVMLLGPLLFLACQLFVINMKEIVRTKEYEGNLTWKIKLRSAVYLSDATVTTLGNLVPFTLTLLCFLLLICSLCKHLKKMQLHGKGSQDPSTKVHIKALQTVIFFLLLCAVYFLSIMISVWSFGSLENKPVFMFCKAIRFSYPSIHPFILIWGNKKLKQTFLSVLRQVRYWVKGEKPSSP

[7] = target: Taste receptor type 2 member 14 (Homo sapiens, UniProt Q9NYV8); assay: Agonist activity at human TAS2R14 expressed in HEK293T cells co-expressing Galpha15 assessed as increase in intracellular calcium level by Calcium-3 dye based fluorescence assay
Sequence of Taste receptor type 2 member 14 (Q9NYV8 whole entry): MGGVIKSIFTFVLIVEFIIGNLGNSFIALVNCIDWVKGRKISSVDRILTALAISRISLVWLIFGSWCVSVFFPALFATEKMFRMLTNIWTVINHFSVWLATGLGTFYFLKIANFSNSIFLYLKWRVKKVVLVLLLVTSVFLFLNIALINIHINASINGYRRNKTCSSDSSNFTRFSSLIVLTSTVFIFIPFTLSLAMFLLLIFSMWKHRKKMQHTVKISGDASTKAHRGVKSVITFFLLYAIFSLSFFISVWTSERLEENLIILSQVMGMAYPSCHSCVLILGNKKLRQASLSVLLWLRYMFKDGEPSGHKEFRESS

[8] = target: Taste receptor type 2 member 60 (Homo sapiens, UniProt P59551); assay: Agonist activity at human TAS2R60 expressed in HEK293T cells co-expressing Galpha15 assessed as increase in intracellular calcium level by Calcium-3 dye based fluorescence assay
Sequence of Taste receptor type 2 member 60 (P59551 whole entry): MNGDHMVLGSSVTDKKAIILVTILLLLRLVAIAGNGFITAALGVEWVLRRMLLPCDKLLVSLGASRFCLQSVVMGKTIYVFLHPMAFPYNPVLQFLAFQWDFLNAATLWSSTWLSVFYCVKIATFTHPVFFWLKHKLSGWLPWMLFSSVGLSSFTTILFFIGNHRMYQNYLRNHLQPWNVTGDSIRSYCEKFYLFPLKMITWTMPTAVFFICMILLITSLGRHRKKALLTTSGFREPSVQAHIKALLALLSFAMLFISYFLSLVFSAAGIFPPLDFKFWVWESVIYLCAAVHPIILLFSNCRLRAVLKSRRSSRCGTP

[9] = target: Taste receptor type 2 member 9 (Homo sapiens, UniProt Q9NYW1); assay: Agonist activity at human TAS2R9 expressed in HEK293T cells co-expressing Galpha15 assessed as increase in intracellular calcium level by Calcium-3 dye based fluorescence assay
Sequence of Taste receptor type 2 member 9 (Q9NYW1 whole entry): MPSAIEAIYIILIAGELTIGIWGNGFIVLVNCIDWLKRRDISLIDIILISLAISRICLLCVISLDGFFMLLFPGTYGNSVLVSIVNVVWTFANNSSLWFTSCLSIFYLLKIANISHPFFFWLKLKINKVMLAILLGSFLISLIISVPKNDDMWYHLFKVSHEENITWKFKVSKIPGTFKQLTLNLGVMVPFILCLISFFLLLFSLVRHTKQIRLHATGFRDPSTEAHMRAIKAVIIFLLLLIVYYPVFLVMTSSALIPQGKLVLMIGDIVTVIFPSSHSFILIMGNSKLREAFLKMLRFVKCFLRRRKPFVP

[10] = target: Taste receptor type 2 member 4 (Homo sapiens, UniProt Q9NYW5); assay: Agonist activity at human TAS2R4 expressed in HEK293T cells co-expressing Galpha15 assessed as increase in intracellular calcium level by Calcium-3 dye based fluorescence assay
Sequence of Taste receptor type 2 member 4 (Q9NYW5 whole entry): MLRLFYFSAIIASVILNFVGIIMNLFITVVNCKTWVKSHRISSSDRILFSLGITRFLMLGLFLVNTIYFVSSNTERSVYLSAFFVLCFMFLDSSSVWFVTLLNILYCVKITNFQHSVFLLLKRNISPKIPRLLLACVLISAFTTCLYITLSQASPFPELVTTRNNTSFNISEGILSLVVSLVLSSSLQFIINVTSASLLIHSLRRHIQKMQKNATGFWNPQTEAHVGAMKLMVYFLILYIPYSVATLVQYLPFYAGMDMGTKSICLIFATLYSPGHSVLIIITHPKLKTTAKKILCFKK

SMILES	Activity [1]	Activity [2]	Activity [3]	Activity [4]	EC50 [5]	EC50 [6]	EC50 [7]	EC50 [8]	EC50 [9]	EC50 [10]
CC(O)C(=O)[O-].[K+] (stereo not drawn)	< 40%	< 40%	< 40%	< 40%	–	–	–	–	–	–
CC1=CC(=O)NS(=O)(=O)O1	> 40%	< 40%	< 40%	< 40%	–	–	–	–	–	–
[Cl-].[K+] [POTASSIUM CHLORIDE]	< 40%	< 40%	< 40%	< 40%	5 to 15 mM	5 to 15 mM	5 to 15 mM	5 to 15 mM	5 to 15 mM	5 to 15 mM
